Measurements reported in ChEMBL document CHEMBL5728174 (2020).

Columns and labels:
[1] = (§1) After a 3-day incubation at 37° C. cell viability was determined by the MTT method as described by Pauwels et al. (J. Virol. Methods 1988, 20, 309-321).To determine the cytotoxicity, cells were seeded at an initial density of 1×10^6 cells/mL in 96 well plates containing Minimum Essential Medium with Earles's salts (MEM-E), L-glutamine, 1 mM sodium pyruvate and 25 mg/L kanamycin, supplemented with 10% fetal bovine serum. Cell cultures were then incubated at 37° C. in a humidified 5% CO2 atmosphere in the absence or presence of serial dilutions of test compounds. Cell viability was determined by the MTT method.; type: cell-based
[2] = as §1; type: cell-based; remark: listed apart in the source

Measured: EC50

CC(C)OC(=O)[C@H](C)N[P@](=O)(OCC1O[C@@H](n2ccc(=O)[nH]c2=O)[C@](C)(F)[C@@H]1O)Oc1ccccc1 (some centres undefined)
> 100 µM: [1] | [1]; BHK-21, 72 h | [2] | [2]; 72 h
